Patent publication US12187702B2, “Sulfonamideurea compounds” (Inflazome Limited, priority 2018, dated 2025)
pIC50: −log10 of the molar value. Where a name gives a salt, the structure may show the parent alone.

Assays:
NLRP3 [1] = biological target: T1, NLRP3 (Homo sapiens, UniProt Q96P20); experiment: Human whole blood IL-1β release assay (LPS + nigericin, AlphaLisa); type: cell-based; design: Plate out 80 μl of whole blood containing 1 μg/ml of LPS; from tissue; host or cells: human whole blood from healthy donors; conditions: human whole blood, 1 μg/ml LPS, 10 μM nigericin; IL-1β release; read-out: HWB IC50
T1 sequence (Q96P20 whole entry): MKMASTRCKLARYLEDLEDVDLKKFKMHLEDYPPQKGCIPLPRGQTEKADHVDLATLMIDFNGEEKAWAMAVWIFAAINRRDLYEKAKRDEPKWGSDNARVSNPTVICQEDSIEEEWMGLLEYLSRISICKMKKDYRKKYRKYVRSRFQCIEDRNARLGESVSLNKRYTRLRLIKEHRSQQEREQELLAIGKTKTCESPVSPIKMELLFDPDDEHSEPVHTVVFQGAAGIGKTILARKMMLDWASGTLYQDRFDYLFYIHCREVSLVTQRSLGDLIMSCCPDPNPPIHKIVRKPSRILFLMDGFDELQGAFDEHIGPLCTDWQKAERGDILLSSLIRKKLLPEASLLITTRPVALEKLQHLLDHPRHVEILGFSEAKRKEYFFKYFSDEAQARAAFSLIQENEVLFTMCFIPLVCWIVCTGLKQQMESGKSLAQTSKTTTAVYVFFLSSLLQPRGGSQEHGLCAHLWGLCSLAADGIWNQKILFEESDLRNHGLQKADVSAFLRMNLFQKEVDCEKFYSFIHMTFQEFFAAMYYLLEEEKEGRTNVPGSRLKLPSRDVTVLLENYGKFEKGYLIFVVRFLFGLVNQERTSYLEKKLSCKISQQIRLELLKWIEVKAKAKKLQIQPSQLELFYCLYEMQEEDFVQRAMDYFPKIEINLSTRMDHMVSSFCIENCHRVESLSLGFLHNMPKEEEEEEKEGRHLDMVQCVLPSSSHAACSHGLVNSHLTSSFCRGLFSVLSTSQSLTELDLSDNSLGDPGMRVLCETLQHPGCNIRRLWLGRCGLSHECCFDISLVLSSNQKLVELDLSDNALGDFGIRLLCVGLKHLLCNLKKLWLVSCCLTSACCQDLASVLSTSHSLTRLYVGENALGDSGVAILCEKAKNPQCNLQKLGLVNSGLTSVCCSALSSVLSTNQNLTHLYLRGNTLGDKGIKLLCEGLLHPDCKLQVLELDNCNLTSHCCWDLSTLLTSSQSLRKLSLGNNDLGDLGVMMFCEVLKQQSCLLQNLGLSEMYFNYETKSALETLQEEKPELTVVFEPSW
Experimental: For systemic delivery, the ability to inhibit NLRP3 when the compounds are present within the bloodstream is of great importance. For this reason, the NLRP3 inhibitory activity of a number of compounds in human whole blood was investigated in accordance with the following protocol.
Human whole blood in Li-heparin tubes was obtained from healthy donors from a volunteer donor panel. • 1. Plate out 80 μl of whole blood containing 1 μg/ml of LPS in 96-well, clear bottom cell culture plate (Corning #3585) • 2. Add 10 μl compound (8 points half-log dilution with 10 μM top dose) or vehicle (DMSO 0.1% FAC) to the appropriate wells • 3. Incubate for 3 hrs at 37° C., 5% CO2 • 4. Add 10 μl nigericin (Sigma #N7143) (10 μM FAC) to all wells • 5. Incubate for 1 hr at 37° C., 5% CO2 • 6. At the end of the incubation period, spin plates at 300×g for 5 mins to pellet cells and remove 20 μl of supernatant and add to 96-well v-bottom plates for IL-1β analysis (note: these plates containing the supernatants can be stored at −80° C. to be analysed at a later date) • 7. IL-1β was measured according to the manufacturer protocol (Perkin Elmer-AlphaLisa IL-1 Kit AL220F-5000) • 8. IC50 data is fitted to a non-linear regression equation (log inhibitor vs response-variable slope 4-parameters)

NLRP3 [2] = biological target: T1, NLRP3; experiment: THP-1 cells pyroptosis assay (LPS + nigericin, resazurin read-out); type: cell-based; design: Seed THP-1 cells (25,000 cells/well) containing 1.0 μg/ml LPS; host or cells: THP-1 cells; conditions: THP-1 cells, 1 μg/ml LPS, 5 μM nigericin; NLRP3 inhibitory activity; read-out: THP IC50
Experimental: THP-1 cells (ATCC #TIB-202) were grown in RPMI containing L-glutamine (Gibco #11835) supplemented with 1 mM sodium pyruvate (Sigma #S8636) and penicillin (100 units/ml)/streptomycin (0.1 mg/ml) (Sigma #P4333) in 10% Fetal Bovine Serum (FBS) (Sigma #F0804). The cells were routinely passaged and grown to confluency (˜10^6 cells/ml). On the day of the experiment, THP-1 cells were harvested and resuspended into RPMI medium (without FBS). The cells were then counted and viability (>90%) checked by Trypan blue (Sigma #T8154). Appropriate dilutions were made to give a concentration of 625,000 cells/ml. To this diluted cell solution was added LPS (Sigma #L4524) to give a 1 μg/ml Final Assay Concentration (FAC). 40 μl of the final preparation was aliquoted into each well of a 96-well plate. The plate thus prepared was used for compound screening.
The following method step-by-step assay was followed for compound screening. • 1. Seed THP-1 cells (25,000 cells/well) containing 1.0 μg/ml LPS in 40 μl of RPMI medium (without FBS) in 96-well, black walled, clear bottom cell culture plates coated with poly-D-lysine (VWR #734-0317) • 2. Add 5 μl compound (8 points half-log dilution, with 10 μM top dose) or vehicle (DMSO 0.1% FAC) to the appropriate wells • 3. Incubate for 3 hrs at 37° C., 5% CO2 • 4. Add 5 μl nigericin (Sigma #N7143) (FAC 5 μM) to all wells • 5. Incubate for 1 hr at 37° C., 5% CO2 • 6. At the end of the incubation period, spin plates at 300×g for 3 mins and remove supernatant • 7. Then add 50 μl of resazurin (Sigma #R7017) (FAC 100 μM resazurin in RPMI medium without FBS) and incubate plates for a further 1-2 hrs at 37° C. and 5% CO2 • 8. Plates were read in an Envision reader at Ex 560 nm and Em 590 nm • 9. IC50 data is fitted to a non-linear regression equation (log inhibitor vs response-variable slope 4-parameters)

Compound	pIC50 (NLRP3 [1])	pIC50 (NLRP3 [2])
CN(C)C1CCN(S(=O)(=O)NC(=O)Nc2c3c(cc4c2CCC4)CCC3)C1 (stereo not drawn) [Example 9, 3-(Dimethylamino)-N-((1,2,3,5,6,7-hexahydro-s-indacen-4-yl)carbamoyl)pyrrolidine-1-sulfonamide, potassium salt]	> 6.30	> 6.30
CN(C)CCN(Cc1ccccc1)S(=O)(=O)NC(=O)Nc1c2c(cc3c1CCC3)CCC2 [Example 10, 3-(N-Benzyl-N-(2-(dimethylamino)ethyl)sulfamoyl)-1-(1,2,3,5,6,7-hexahydro-s-indacen-4-yl)urea, potassium salt]	> 5.30	> 5.30
CN1C2CCC1CN(S(=O)(=O)NC(=O)Nc1c3c(cc4c1CCC4)CCC3)C2 [Example 14, N-((1,2,3,5,6,7-Hexahydro-s-indacen-4-yl)carbamoyl)-8-methyl-3,8-diazabicyclo[3.2.1]octane-3-sulfonamide, potassium salt]	> 6.30	> 6.30
CN(C)C1CCCN(S(=O)(=O)NC(=O)Nc2c3c(cc4c2CCC4)CCC3)C1 (stereo not drawn) [Example 15, potassium salt]	> 6.30	> 6.30
CN1CCCC1CNS(=O)(=O)NC(=O)Nc1c2c(cc3c1CCC3)CCC2 (stereo not drawn) [Example 25, 3-(N-((1-Methylpyrrolidin-2-yl)methyl))sulfamoyl)-1-(1,2,3,5,6,7-hexahydro-s-indacen-4-yl)urea, potassium salt]	> 6.30	> 6.00
CC(C)NCCNS(=O)(=O)NC(=O)Nc1c2c(cc3c1CCC3)CCC2 [Example 26]	> 6.00	> 6.30
CC(C)NCCN(C(C)C)S(=O)(=O)NC(=O)Nc1c2c(cc3c1CCC3)CCC2 [Example 28, 3-(N-Isopropyl-N-(2-(isopropylamino)ethyl))sulfamoyl)-1-(1,2,3,5,6,7-hexahydro-s-indacen-4-yl)urea, potassium salt]	> 6.30	> 6.30
CC(C)N1C2CCC1CN(S(=O)(=O)NC(=O)Nc1c3c(cc4c1CCC4)CCC3)C2 [Example 29, N-((1,2,3,5,6,7-Hexahydro-s-indacen-4-yl)carbamoyl)-8-isopropyl-3,8-diazabicyclo[3.2.1]octane-3-sulfonamide, potassium salt]	> 6.30	> 6.30
CC(CNS(=O)(=O)NC(=O)Nc1c2c(cc3c1CCC3)CCC2)N(C)C (stereo not drawn) [Example 30, 3-(N-(2-(Dimethylamino)propyl))sulfamoyl)-1-(1,2,3,5,6,7-hexahydro-s-indacen-4-yl)urea, potassium salt]	> 6.30	> 6.00
CN1CCC1CNS(=O)(=O)NC(=O)Nc1c2c(cc3c1CCC3)CCC2 (stereo not drawn) [Example 31, 3-(N-((1-Methylazetidin-2-yl)methyl))sulfamoyl)-1-(1,2,3,5,6,7-hexahydro-s-indacen-4-yl)urea, potassium salt]	> 6.30	> 6.30
CN1CC(NS(=O)(=O)NC(=O)Nc2c3c(cc4c2CCC4)CCC3)C1 [Example 34, 3-(N-(1-Methylazetidin-3-yl))sulfamoyl)-1-(1,2,3,5,6,7-hexahydro-s-indacen-4-yl)urea, potassium salt]	> 6.30	> 6.30
O=C(Nc1c2c(cc3c1CCC3)CCC2)NS(=O)(=O)NCCN1CCC1 [Example 35, 3-(N-(2-(Azetidin-1-yl)ethyl)sulfamoyl)-1-(1,2,3,5,6,7-hexahydro-s-indacen-4-yl)urea, potassium salt]	> 6.00	> 5.30
CN1CC2CCC(C1)N2S(=O)(=O)NC(=O)Nc1c2c(cc3c1CCC3)CCC2 [Example 37, N-((1,2,3,5,6,7-Hexahydro-s-indacen-4-yl)carbamoyl)-3-methyl-3,8-diazabicyclo[3.2.1]octane-8-sulfonamide, potassium salt]	> 6.00	> 6.30
CC(C)N1CC2CCC(C1)N2S(=O)(=O)NC(=O)Nc1c2c(cc3c1CCC3)CCC2 [Example 38, N-((1,2,3,5,6,7-Hexahydro-s-indacen-4-yl)carbamoyl)-3-isopropyl-3,8-diazabicyclo[3.2.1]octane-8-sulfonamide, potassium salt]	> 6.00	> 6.30
CCN(CCN(C)C)S(=O)(=O)NC(=O)Nc1c2c(cc3c1CCC3)CCC2 [Example 39, 3-(N-(2-(Dimethylamino)ethyl)-N-ethylsulfamoyl))-1-(1,2,3,5,6,7-hexahydro-s-indacen-4-yl)urea, potassium salt]	> 6.00	> 6.30
CCN(CC)CCNS(=O)(=O)NC(=O)Nc1c2c(cc3c1CCC3)CCC2 [Example 40, 3-(N-(2-(Diethylamino)ethyl)sulfamoyl))-1-(1,2,3,5,6,7-hexahydro-s-indacen-4-yl)urea, potassium salt]	> 6.30	> 6.00
CN1C[C@H]2C[C@@H]1CN2S(=O)(=O)NC(=O)Nc1c2c(cc3c1CCC3)CCC2 [Example 43, (1R,4R)—N-((1,2,3,5,6,7-Hexahydro-s-indacen-4-yl)carbamoyl)-5-methyl-2,5-diazabicyclo[2.2.1]heptane-2-sulfonamide, potassium salt]	> 6.30	> 6.30
CCN(CC)[C@@H]1C[C@H]2CC[C@@H](C1)N2S(=O)(=O)NC(=O)Nc1c2c(cc3c1CCC3)CCC2 [Example 78, (1R,3s,5S)-3-(Diethylamino)-N-((1,2,3,5,6,7-hexahydro-s-indacen-4-yl)carbamoyl)-8-azabicyclo[3.2.1]octane-8-sulfonamide]	–	> 5.30
CN(C)[C@H]1C[C@H]2CC[C@@H](C1)N2S(=O)(=O)NC(=O)Nc1c2c(cc3c1CCC3)CCC2 [Example 79, (1R,3r,5S)-3-(Dimethylamino)-N-((1,2,3,5,6,7-hexahydro-s-indacen-4-yl)carbamoyl)-8-azabicyclo[3.2.1]octane-8-sulfonamide]	> 6.30	–
CN(C)CC1CCCN1S(=O)(=O)NC(=O)Nc1c2c(cc3c1CCC3)CCC2 (stereo not drawn) [Example 82, 2-((Dimethylamino)methyl)-N-((1,2,3,5,6,7-hexahydro-s-indacen-4-yl)carbamoyl)pyrrolidine-1-sulfonamide, potassium salt]	–	> 5.30
CN1CC2CN(S(=O)(=O)NC(=O)Nc3c4c(cc5c3CCC5)CCC4)CC2C1 (stereo not drawn) [Example 99, N-((1,2,3,5,6,7-Hexahydro-s-indacen-4-yl)carbamoyl)-5-methylhexahydropyrrolo[3,4-c]pyrrole-2(1H)-sulfonamide]	–	> 5.30
CN1C2CC1CN(S(=O)(=O)NC(=O)Nc1c3c(cc4c1CCC4)CCC3)C2 [Example 100, N-((1,2,3,5,6,7-Hexahydro-s-indacen-4-yl)carbamoyl)-6-methyl-3,6-diazabicyclo[3.1.1]heptane-3-sulfonamide]	–	> 6.30
CC(C)c1cc(F)cc(-c2ccnc(C#N)c2)c1NC(=O)NS(=O)(=O)N(C)C1CCN(C)C1 (stereo not drawn) [Example 101]	–	> 5.30
CC(C)c1cc(F)cc(-c2ccnc(C#N)c2)c1NC(=O)NS(=O)(=O)N(C)CC1CCCN1C (stereo not drawn) [Example 102]	–	> 5.30
Cc1nc(C(C)C)c(NC(=O)NS(=O)(=O)N(C)C2CCN(C)C2)n1-c1ccncc1 (stereo not drawn) [Example 109, 1-(5-Isopropyl-2-methyl-3-(4-pyridyl)imidazol-4-yl)-3-(methyl-(1-methylpyrrolidin-3-yl)sulfamoyl)urea]	–	> 5.00
